Results reported in patent US6297267A, “4,5-diaryloxazole compounds” (Fujisawa Pharmaceutical Co., Ltd., priority 1997, dated 2001).

Tested on: Human Platelet
Experiment: Inhibition of Human Platelet Aggregation Induced by ADP
Format: cell-based
Settings: 2 min; Test Compound 1.0 × 10^-7 M; human platelet rich plasma; ADP 2.5 μM; 2 minutes at 37° C
Method: Inhibition of Human Platelet Aggregation Induced by ADP
Human blood was collected from healthy volunteers and mixed with 1/10 volume of 3.8% sodium citrate solution, pH 7.4. The citrate blood was centrifuged at 150×g for 10 minutes and the platelet rich plasma (PRP) was removed. The remaining blood was centrifuged for a further 10 minutes at 1500×g to prepare the platelet poor plasma (PPP), which was used as a reference for platelet aggregation. Aggregation studies were carried out using HEMATRACER 801 (NBS, Japan), a 8 channel aggregometer. 25 μl of a solution of Test compound in Tris-acetate buffer pH 7.4 and 225 μl of PRP were mixed and stirred at 1000 rpm for 2 minutes at 37° C. Aggregation was induced by ADP (adenosin 5'-diphosphate) solution at the final concentration of 2.5 μM.

Row | SMILES | inhibition at 0.1 µM [%]
1 | O=C(O)COc1cccc(CC2(O)CCCC=C2c2nc(-c3ccccc3)c(-c3ccccc3)o2)c1 (stereo not drawn) [(1)] | > 90
2 | O=C(O)COc1cccc(C[C@@H]2CCC(O)C=C2c2nc(-c3ccccc3)c(-c3ccccc3)o2)c1 (stereo partly drawn) [(2)] | > 90
3 | O=C(O)COc1cccc(C[C@@H]2CCCC3OC32c2nc(-c3ccccc3)c(-c3ccccc3)o2)c1 (stereo partly drawn) [(3)] | > 90
